Assay results published in patent publication US8846351B2, “Compositions for enhancing hydroysis of cellulosic material by cellulolytic enzyme compositions” (Novozymes, Inc., priority 2010, dated 2014).
Where two headings read alike, the source gives them in different places.

Assays:
[1] = test system: Trichoderma reesei cellulase composition; format: biochemical; conditions: AVICEL, 1 mM organic compound
Procedure: Microcrystalline cellulose was used as the source of cellulosic material.
The concentration of each organic compound was 1 mM.

[2] = target: T. aurantiacus GH61A polypeptide (Thermoascus aurantiacus, UniProt G3XAP7, N13Y); experiment: PACE analysis of products from PASC incubated with organic compound, Ca(II) and T. aurantiacus GH61A polypeptide at various pH; format: biochemical
T. aurantiacus GH61A polypeptide, sequence (G3XAP7 whole entry N13Y): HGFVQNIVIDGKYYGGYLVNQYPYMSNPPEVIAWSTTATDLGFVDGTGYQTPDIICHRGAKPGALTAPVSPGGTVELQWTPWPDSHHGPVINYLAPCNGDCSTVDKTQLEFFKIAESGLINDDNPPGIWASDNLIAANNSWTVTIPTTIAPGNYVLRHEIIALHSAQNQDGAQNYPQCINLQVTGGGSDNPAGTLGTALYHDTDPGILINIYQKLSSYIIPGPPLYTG
Procedure: Polysaccharide-analysis-using-carbohydrate-gel-electrophoresis (PACE) was applied to analyze the products from incubation of cellulose in the presence of Ca(II) and ascorbate, cysteine or gallic acid and the T. aurantiacus GH61A polypeptide.
The mixture was filtered, and the filtrate (90 μl) was subjected to PACE analysis as described below. Buffers were varied to obtain the following pH values: formic acid at pH 4, acetic acid at pH 5, triethylammonium acetate at pH 6-7, and ammonium acetate at pH 8-9.
Carbohydrate products from the reaction were derivatized with 8-aminonaphthalene-1,3,6-trisulfonic acid (ANTS) fluorophore, applied to a polyacrylamide gel, and subjected to PACE, according to protocols adapted from (Goubet et al, 2002, Analytical Biochemistry 300: 53-68). Briefly, the derivatization was conducted by first drying 45 μl of the reaction products in a Jouan RC1010 vacuum concentrator system (Jouan Inc., Vallensbaekvej, Denmark) at 40° C. for about 3 hours, then mixing the dried products with 5 μl of 0.2 M ANTS in 15% acetic acid and 5 μl of 1 M NaBH3CN in DMSO, incubation at 37° C. in a thermomixer overnight followed by exposure to air for about 30 minutes, and then drying in a vacuum concentrator at 40° C. for about 4 hours. The ANTS-labeled samples were mixed with 20 μl of 6 M urea prior to PACE analysis.
Gels were cast according to Goubet et al., 2002, supra. The electrophoresis was performed with an SE 660 vertical electrophoresis system (GE Healthcare, Park Alle, Denmark) in a Tris/Borate buffer system at 200 V for 30 minutes and then at 1000 V for almost 2 hours at +5° C., followed by visualization using a UVP BioImaging System (UVP, LLC, Upland, Calif., USA) with UV transilluminator (Wavelength 365 nm UV-A) and EpiChem Darkroom combined with a camera system using a SYBR Gold™ emission filter (Syngene, Cambridge, United Kingdom).
Densitometry was performed by visual definition of a minimal space containing the band of interest, and integration of total pixel intensity within the space using a series of MatLab® scripts (The Mathworks, Natick, Mass., USA).

[3] = cited from earlier work

Structure (SMILES)	organic compound effect(no GH61) ([1]; pH 5.0, 50° C., 7 days)	organic compound effect(no GH61) ([1]; pH 5.0, 50° C., 3 days)	also measured
O=C(O)c1ccc(O)c(O)c1 [3,4-dihydroxybenzoic acid]	0.977±0.0208	–	–
O=C(O)c1cc(O)cc(O)c1 [3,5-dihydroxybenzoic acid]	greater than 1	–	–
COc1cc(C=CC(=O)O)ccc1O [4-hydroxy-3-methoxycinnamic acid]	approximately 1	below 1	–
O=C(O)c1ccc(O)cc1 [4-hydroxybenzoic acid]	0.961±0.0250	0.959±0.0162	–
N[C@@H](CS)C(=O)O [cysteine]	–	–	products detected on PACE ([2]; PASC, Ca(II), GH61A polypeptide, 50° C., pH at or above the pKa of the compound): products similar to cellodextrins having 1-7 glucosyl units were detected
O=C1OC(C(O)CO)C(=O)C1=O (stereo not shown) [dehydroascorbate]	1.14±0.00522	1.05±0.0058	–
O=C(O)c1cc(O)c(O)c(O)c1 [gallic acid]	–	–	PACE band intensity as a function of pH (densitometry) ([2]; cellodextrin bands of apparent DP 4, 8 and 9): increased in intensity with increasing pH; PACE product bands at low pH ([2]; lowest pH examined, 3.9): near zero; shape of the increase of PACE band intensity with pH ([2]; pH range about 3.9 to 5.6): sharp increase in product intensity was noted between pH values of 4.5 and 5.5; pKa [3]: 4.5
N[C@@H](CCC(=O)O)C(=O)O [glutamic acid]	above 1	below 1	–
COC(=O)c1cc(O)c(O)c(O)c1 [methyl-3,4,5-trihydroxybenzoate]	0.947±0.00189	0.989±0.0121	–
COC(=O)c1ccc(O)cc1 [methyl-4-hydroxybenzoate]	–	–	organic compound effect(no GH61) ([1]; time not specified (FIG. 1: 3 and 7 days)): slightly inhibited
Oc1ccccc1O [pyrocatechol]	0.766±0.0361	–	–
Oc1cccc(O)c1O [pyrogallol]	0.735±0.00518	–	–
O=C(O)C(O)C(O)C(=O)O (stereo not shown) [tartrate]	below 1	below 1	–
